According to PubChem BioAssay AID328 (DTP/NCI, 2004):
“And” between values parts separate entries of the source, which are not always exact repeats. Equal entries are not always repeated. Inconclusive results and toxic doses are left out.

Tested on: BDF1 mice, P388 leukemia ip, median survival T/C
Assay: NCI In Vivo Anticancer Drug Screen. Data for tumor model P388 Leukemia (intraperitoneal) in B6D2F1 (BDF1) mice
Conditions: endpoint: median survival time, higher = longer survival
Summary of the method: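 Survival ratio, drug arm over vehicle arm, in mice with a transplanted tumour.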

[1] = dose: 6.25 mg/kg/injection, schedule: Q01DX009 (ip), vehicle: saline with Tween-80
[2] = dose: 12.5 mg/kg/injection, schedule: Q01DX009 (ip), vehicle: saline with Tween-80
[3] = dose: 25.0 mg/kg/injection, schedule: Q01DX009 (ip), vehicle: saline with Tween-80
[4] = dose: 50.0 mg/kg/injection, schedule: Q01DX009 (ip), vehicle: saline with Tween-80
[5] = dose: 100.0 mg/kg/injection, schedule: Q01DX009 (ip), vehicle: saline with Tween-80
[6] = dose: 200.0 mg/kg/injection, schedule: Q01DX009 (ip), vehicle: saline with Tween-80
[7] = dose: 50.0 mg/kg/injection, schedule: Q01DX009 (ip), vehicle: Klucel (hydroxypropylcellulose) (HPC)
[8] = dose: 50.0 mg/kg/injection, schedule: Q04DX003 (ip), vehicle: Klucel (hydroxypropylcellulose) (HPC)
[9] = dose: 100.0 mg/kg/injection, schedule: Q01DX009 (ip), vehicle: Klucel (hydroxypropylcellulose) (HPC)
[10] = dose: 100.0 mg/kg/injection, schedule: Q04DX003 (ip), vehicle: Klucel (hydroxypropylcellulose) (HPC)
[11] = dose: 200.0 mg/kg/injection, schedule: Q04DX003 (ip), vehicle: Klucel (hydroxypropylcellulose) (HPC)
[12] = dose: 200.0 mg/kg/injection, schedule: Q01DX009 (ip), vehicle: saline
[13] = dose: 6.25 mg/kg/injection, schedule: Q01DX009 (ip), vehicle: Klucel (hydroxypropylcellulose) (HPC)

In the case of CC1(C)CC(=O)OC(=O)C1, the T/C (dose: 3.13 mg/kg/injection, schedule: Q01DX009 (ip), vehicle: saline with Tween-80) is reported as 93 % of control, the T/C [1] is reported as 100 % of control and the T/C [2] is reported as 95 % of control. For the same compound, the T/C [3] was 105 % of control.
With O=C(c1ccccc1)C1CN(C2CCCC2)C1c1ccccc1 (stereo unspecified) the T/C [4] was 91 % of control, the T/C [5] was 92 % of control and the T/C [6] was 91 % of control.
In the case of O=C(O)c1c(Cl)c(Cl)c(Cl)c(C(=O)O)c1Cl, the T/C [7] is reported as 104 % of control, the T/C [8] is reported as 109 % of control and the T/C [9] is reported as 100 % of control. For the same compound, the T/C [10] was 95 % of control and the T/C [11] was 100 % of control.
O=C(C[n+]1cc(Br)cc2ccccc21)c1ccc(O)c(O)c1 was tested, and the T/C [7] was 95 % of control, the T/C (dose: 176.0 mg/kg/injection, schedule: Q04DX003 (ip), vehicle: saline sonified) was 118 % of control and the T/C [12] was 170 % of control. The T/C [11] was 110 % of control, the T/C (dose: 200.0 mg/kg/injection, schedule: Q04DX003 (ip), vehicle: saline sonified) was 122 % of control and the T/C (dose: 264.0 mg/kg/injection, schedule: Q01DX009 (ip), vehicle: saline with Tween-80) was 113 % of control. The T/C (dose: 400.0 mg/kg/injection, schedule: Q01DX009 (ip), vehicle: Klucel (hydroxypropylcellulose) (HPC)) was 115 % of control, the T/C (dose: 400.0 mg/kg/injection, schedule: Q01DX009 (ip), vehicle: saline) was 180 % of control and the T/C (dose: 400.0 mg/kg/injection, schedule: Q04DX003 (ip), vehicle: saline sonified) was 118 % of control.
With [CH3][Sn]([CH3])([Cl])[S]CCN the T/C (dose: 6.25 mg/kg/injection, schedule: Q01DX009 (ip), vehicle: saline) was 123 % of control.
In the case of Cn1c(=O)c2c(nc(CCCCc3nc4c(c(=O)n(C)c(=O)n4C)n3C)n2C)n(C)c1=O, the T/C [5] is reported as 91 % of control and the T/C [6] is reported as 88 % of control.
With S=c1[nH]ncn1-c1ccccc1 the T/C [1] was 99 % of control, the T/C [2] was 99 % of control and the T/C [3] was 99 % of control. For the same compound, the T/C [4] was 96 % of control.
With COCCCNC1=C(Cl)C(=O)c2ccccc2C1=O the T/C [7] was 106 % of control, the T/C [9] was 113 % of control and the T/C (dose: 200.0 mg/kg/injection, schedule: Q01DX009 (ip), vehicle: Klucel (hydroxypropylcellulose) (HPC)) was 109 % of control.
CC1CCC2(C(=O)O)CCC3(C)C(=CCC4C5(C)CC(O)C(O)C(C)(C(=O)O)C5CCC43C)C2C1(C)O (stereo unspecified) was tested, and the T/C (dose: 100.0 mg/kg/injection, schedule: Q01DX001 (ip), vehicle: saline with Tween-80) was 104 % of control and the T/C (dose: 200.0 mg/kg/injection, schedule: Q01DX001 (ip), vehicle: saline with Tween-80) was 100 % of control.
With CCCCCC(CN(C)C)C(=O)/C=C/c1c(Cl)cccc1Cl (stereo unspecified) the T/C (dose: 3.12 mg/kg/injection, schedule: Q04DX003 (ip), vehicle: Klucel (hydroxypropylcellulose) (HPC)) was 104 % of control, the T/C [13] was 110 % of control and the T/C (dose: 6.25 mg/kg/injection, schedule: Q04DX003 (ip), vehicle: Klucel (hydroxypropylcellulose) (HPC)) was 109 % of control. For the same compound, the T/C (dose: 12.5 mg/kg/injection, schedule: Q04DX003 (ip), vehicle: Klucel (hydroxypropylcellulose) (HPC)) was 104 % of control, the T/C (dose: 18.0 mg/kg/injection, schedule: Q04DX003 (ip), vehicle: Klucel (hydroxypropylcellulose) (HPC)) was 105 % of control and the T/C (dose: 28.0 mg/kg/injection, schedule: Q04DX003 (ip), vehicle: Klucel (hydroxypropylcellulose) (HPC)) was 115 % of control. The T/C (dose: 40.0 mg/kg/injection, schedule: Q01DX001 (ip), vehicle: saline) was 109 % of control, the T/C (dose: 40.0 mg/kg/injection, schedule: Q04DX003 (ip), vehicle: Klucel (hydroxypropylcellulose) (HPC)) was 90 % of control and the T/C (dose: 65.0 mg/kg/injection, schedule: Q01DX001 (ip), vehicle: saline) was 104 % of control.
In the case of CS/C(N)=N/N, the T/C (dose: 6.25 mg/kg/injection, schedule: Q04DX003 (ip), vehicle: saline) is reported as 95 % of control and the T/C (dose: 12.5 mg/kg/injection, schedule: Q04DX003 (ip), vehicle: saline) is reported as 108 % of control.
For O=S1(=O)CCNNCC1, the T/C (dose: 25.0 mg/kg/injection, schedule: Q01DX001 (ip), vehicle: saline) was 110 % of control, the T/C (dose: 50.0 mg/kg/injection, schedule: Q01DX001 (ip), vehicle: saline) was 105 % of control and the T/C (dose: 100.0 mg/kg/injection, schedule: Q01DX001 (ip), vehicle: saline) was 120 % of control. For the same compound, the T/C (dose: 200.0 mg/kg/injection, schedule: Q01DX001 (ip), vehicle: saline) was 110 % of control.
With CS(=O)(=O)Nc1ccc(C(=O)CCN2CCCCCC2)cc1 the T/C (dose: 25.0 mg/kg/injection, schedule: Q01DX009 (ip), vehicle: saline) was 108 % of control and 110 % of control, the T/C (dose: 50.0 mg/kg/injection, schedule: Q01DX009 (ip), vehicle: saline) was 110 % of control and 112 % of control and 113 % of control and the T/C (dose: 100.0 mg/kg/injection, schedule: Q01DX009 (ip), vehicle: saline) was 117 % of control. For the same compound, the T/C [12] was 117 % of control.
With COc1ccc(C(SCC(N)C(=O)O)(c2ccccc2)c2ccccc2)cc1 (stereo unspecified) the T/C (dose: 1.3 mg/kg/injection, schedule: Q01DX009 (ip), vehicle: Klucel (hydroxypropylcellulose) (HPC)) was 117 % of control, the T/C (dose: 2.0 mg/kg/injection, schedule: Q01DX009 (ip), vehicle: Klucel (hydroxypropylcellulose) (HPC)) was 113 % of control and the T/C (dose: 4.12 mg/kg/injection, schedule: Q01DX009 (ip), vehicle: Klucel (hydroxypropylcellulose) (HPC)) was 155 % of control. The T/C [13] was 160 % of control and 168 % of control and 175 % of control, the T/C (dose: 12.5 mg/kg/injection, schedule: Q01DX009 (ip), vehicle: Klucel (hydroxypropylcellulose) (HPC)) was 200 % of control and the T/C (dose: 25.0 mg/kg/injection, schedule: Q01DX009 (ip), vehicle: Klucel (hydroxypropylcellulose) (HPC)) was 250 % of control. The T/C (dose: 25.0 mg/kg/injection, schedule: Q04DX003 (ip), vehicle: Klucel (hydroxypropylcellulose) (HPC)) was 155 % of control, the T/C (dose: 33.0 mg/kg/injection, schedule: Q04DX003 (ip), vehicle: Klucel (hydroxypropylcellulose) (HPC)) was 154 % of control and the T/C [7] was 105 % of control. For the same compound, the T/C [8] was 170 % of control and 185 % of control, the T/C (dose: 66.0 mg/kg/injection, schedule: Q04DX003 (ip), vehicle: Klucel (hydroxypropylcellulose) (HPC)) was 272 % of control and the T/C [10] was 240 % of control and 205 % of control.
For Oc1ccc(Cl)cc1Br, the T/C [3] was 110 % of control, the T/C [4] was 115 % of control and the T/C [5] was 110 % of control.
With c1ccc(C(c2ccccc2)[n+]2ccccc2)cc1 the T/C (dose: 3.13 mg/kg/injection, schedule: Q01DX009 (ip), vehicle: saline) was 91 % of control and the T/C (dose: 12.5 mg/kg/injection, schedule: Q01DX009 (ip), vehicle: saline) was 114 % of control.
In the case of O=[N+]([O-])c1ccc(N2CCCCC2)c2c1no[n+]2[O-], the T/C (dose: 15.0 mg/kg/injection, schedule: Q01DX009 (ip), vehicle: saline with Tween-80) is reported as 88 % of control, the T/C (dose: 30.0 mg/kg/injection, schedule: Q01DX009 (ip), vehicle: saline with Tween-80) is reported as 93 % of control and the T/C (dose: 60.0 mg/kg/injection, schedule: Q01DX009 (ip), vehicle: saline with Tween-80) is reported as 95 % of control.
For CP1(=O)CC(=O)CCC(=O)C1, the T/C (dose: 50.0 mg/kg/injection, schedule: Q04DX002 (ip), vehicle: saline) was 104 % of control, the T/C (dose: 100.0 mg/kg/injection, schedule: Q04DX002 (ip), vehicle: saline) was 105 % of control and the T/C (dose: 200.0 mg/kg/injection, schedule: Q04DX002 (ip), vehicle: saline) was 106 % of control.
For O=C1NC2C(NC(=O)N2Cl)N1Cl (stereo unspecified), the T/C [2] was 103 % of control, the T/C [3] was 100 % of control and the T/C [4] was 103 % of control.
In the case of FC(F)(F)c1cccc(C=Nc2ccc(Oc3ccccc3)cc2)c1, the T/C (dose: 50.0 mg/kg/injection, schedule: Q01DX009 (ip), vehicle: saline + alcohol) is reported as 97 % of control, the T/C (dose: 100.0 mg/kg/injection, schedule: Q01DX009 (ip), vehicle: saline + alcohol) is reported as 91 % of control and the T/C (dose: 200.0 mg/kg/injection, schedule: Q01DX009 (ip), vehicle: saline + alcohol) is reported as 100 % of control.
CC(C)(C)OC(=O)NC(CC(Cc1ccccc1)C(N)=O)C(=O)N1CCCC1C(=O)OCc1ccccc1 (stereo unspecified) was tested, and the T/C (dose: 50.0 mg/kg/injection, schedule: Q01DX005 (ip), vehicle: saline with Tween-80) was 102 % of control, the T/C (dose: 100.0 mg/kg/injection, schedule: Q01DX005 (ip), vehicle: saline with Tween-80) was 95 % of control and the T/C (dose: 200.0 mg/kg/injection, schedule: Q01DX005 (ip), vehicle: saline with Tween-80) was 98 % of control.
In the case of C=C1C(C2(C)C(OC(C)=O)CC(=O)OC(C)(COC(C)=O)C2CC(=O)OC)C(OC=O)C(OC(=O)C(O)C(C)CC)C2(C)C(c3ccoc3)CC(=O)C12O (stereo unspecified), the T/C (dose: 3.75 mg/kg/injection, schedule: Q01DX009 (ip), vehicle: Klucel (hydroxypropylcellulose) (HPC)) is reported as 94 % of control and the T/C (dose: 7.5 mg/kg/injection, schedule: Q01DX009 (ip), vehicle: Klucel (hydroxypropylcellulose) (HPC)) is reported as 93 % of control.
